# In PMC9021288 (Nature Communications, 2022):
# Where “and” joins values, the source holds several entries; their conditions need not be identical. Equal entries are not always repeated. Where two headings read alike, the source gives them in different places.
# Experiments:
# [1] = Solubility in PBS, FaSSIF, FeSSIF; assay type: physicochemical; conditions: unknown samples, relative dilution factor 10000, duplicates
# [2] = mouse
# [3] = rat
# [4] = human
# [5] = test system: P. falciparum NF54 rings and schizonts; experiment: Stage-specific activity on synchronized ring and schizont cultures; assay type: cell-based, Plasmodium falciparum
# Method: Asynchronous NF54 parasites were cultured in a semi-automated shaker system[63] and synchronized once with 5% D-sorbitol. […] This yielded a parasite culture with ≥ 90% rings. To assess the schizont-stage activity of MMV693186, the initial synchronized culture was treated again with sorbitol 7 h later. Subsequently, parasites were cultured for another 17 h to yield a parasite culture of ≥ 90% early schizont stages. The ring and schizont synchronized cultures were diluted to 0.5% and then incubated with either 50 nM DHA or 50 nM MM693183 for 24 h in duplicate. Subsequently, the drug was washed out and parasites were cultured for another 24 h. Parasitemia was determined using Giemsa-stained thin smears at 0 h, 24 h, and 48 h after drug exposure.
# AcAS (PF3D7_0627800) = experiment: Cellular thermal shift assay on parasite lysate; assay type: binding, Plasmodium falciparum; conditions: 1 µM
# Method: A cellular thermal shift assay (CETSA) was performed on infected RBCs or parasite lysates as described previously.
# For a CETSA on parasite lysates, synchronized trophozoite cultures (ACS11-tagged parasites) were treated with 0.1% saponin to lyse the RBCs, and washed three times in PBS. Subsequently, parasite pellets were resuspended in 1× lysis buffer and subjected to three flash-freeze-thaw cycles using liquid nitrogen, followed by mechanical shearing using a syringe with a 25 G and a 30 G needle. Samples were spun down at 18,000 g for 20 min at 4 °C. The supernatant was diluted to 2.1 mg/ml protein concentration, and 100 µl was added to each PCR tube containing 1 µl of the compound at a 100× concentration (final concentration of 1 µM). Samples were incubated for 30 min at room temperature, subjected to a thermal gradient for 3 min on a pre-heated PCR machine, followed by 4 °C for 3 min. Samples were spun down at 18,000 g for 20 min at 4 °C and the soluble fraction was flash-frozen in liquid nitrogen and stored at −80 °C.
# Samples were loaded on an 8% SDS-Page gel (Genscript) with 4×10^6 infected RBCs or 50 µg protein for the parasite lysate approach. Proteins were transferred to a nitrocellulose membrane that was blocked with 5% skim milk (Sigma) in PBS overnight and incubated with rabbit antiserum against AcAS (1:1000) for 1 h. Subsequently, membranes were washed three times with PBS-Tween for 5 min, followed by incubation with secondary horseradish peroxide (HRP)-conjugated goat anti-rabbit antibodies (Dako P0448, 1:1000) for 1 h. Blots were then washed three times with PBS-Tween for 5 min and twice with PBS. Following a 5-min incubation with Clarity Max Western ECL Substrate (BioRad), protein blots were imaged using the ImageQuant LAS4000 (GE Healthcare). The band intensity was quantified using Fiji software.
# [6] = mouse, plasma
# [7] = rat, plasma
# [8] = dog, plasma
# [9] = human, plasma
# in vitro = conditions: human
smiles,measurement,setting,value
C[C@@H](CNC(=O)[C@H](O)C(C)(C)CO)NC(=O)c1cc(F)c(F)cc1F [MMV693183-06],Calculated concentration (solubility sample),[1]; FaSSIF,9179.95 ppm and 9316.55 ppm
same,Calculated concentration (solubility sample),[1]; FeSSIF,9110.79 ppm and 8990.98 ppm
same,Calculated concentration (solubility sample),[1]; PBS,6813.58 ppm and 7461.45 ppm
C[C@@H](CNC(=O)[C@H](O)C(C)(C)CO)NC(=O)c1cc(F)c(F)cc1F [MMV693183-08],Blood to Plasma ratio Avg(n=2),[2],0.98
same,Blood to Plasma ratio Avg(n=2),[3],0.91
same,Blood to Plasma ratio Avg(n=2),[4],0.97
"C[C@H]1[C@@H](O)O[C@@H]2O[C@@]3(C)CC[C@H]4[C@H](C)CC[C@@H]1[C@@]24OO3 [DHA, dihydroartemisinin]","Parasitemia, rings culture",[5]; Time (h) 0,0.4
same,"Parasitemia, rings culture",[5]; Time (h) 24,0
same,"Parasitemia, rings culture",[5]; Time (h) 48,0
same,"Parasitemia, schizonts culture",[5]; Time (h) 0,0.2
same,"Parasitemia, schizonts culture",[5]; Time (h) 24,0
same,"Parasitemia, schizonts culture",[5]; Time (h) 48,0
same,AcAS band intensity normalized to DMSO at 37 °C,AcAS (PF3D7_0627800); 37 °C,142.951
same,AcAS band intensity normalized to DMSO at 37 °C,AcAS (PF3D7_0627800); 42 °C,180.287
same,AcAS band intensity normalized to DMSO at 37 °C,AcAS (PF3D7_0627800); 47 °C,80.1639
same,AcAS band intensity normalized to DMSO at 37 °C,AcAS (PF3D7_0627800); 52 °C,24.4159
C[C@@H](CNC(=O)[C@H](O)C(C)(C)CO)NC(=O)c1cc(F)c(F)cc1F [MMV693183-03],% Bound Avg,[6],33.4%
same,% Bound n=1,[6],32.91%
same,% Bound n=2,[6],33.90%
same,% Free n=1,[6],67.09%
same,% Free n=2,[6],66.10%
same,% Bound Avg,[7],39.9%
same,% Bound n=1,[7],39.84%
same,% Bound n=2,[7],39.89%
same,% Free n=1,[7],60.16%
same,% Free n=2,[7],60.11%
same,% Bound Avg,[8],41.3%
same,% Bound n=1,[8],42.38%
same,% Bound n=2,[8],40.31%
same,% Free n=1,[8],57.62%
same,% Free n=2,[8],59.69%
same,% Bound Avg,[9],51.9%
same,% Bound n=1,[9],52.54%
same,% Bound n=2,[9],51.24%
same,% Free n=1,[9],47.46%
same,% Free n=2,[9],48.76%
NC(=O)N1c2ccccc2C=Cc2ccccc21 [Carbamazepine],"Papp A→B at 9000 Sec, 2 µM","in vitro; Caco-2, pH 7.4",25 ×10⁻⁶ cm/s
same,"Papp B→A at 9000 Sec, 2 µM","in vitro; Caco-2, pH 7.4",28.9 ×10⁻⁶ cm/s
same,"efflux ratio at 9000 Sec, 2 µM","in vitro; Caco-2, pH 7.4",1.2
same,"Papp at 9000 Sec, 2 µM","in vitro; Caco-2, pH 7.4, Papp AVG",25 ×10⁻⁶ cm/s
same,"Papp at 9000 Sec, 2 µM","in vitro; Caco-2, pH 7.4, Papp n=1, 2",24.3 ×10⁻⁶ cm/s
